Assay [1] deals with human tonsillar organoids. Briefly: in vitro human tonsillar organoid model of T cell-dependent germinal center B cell differentiation. It counts as cell-based.
The test system of another assay is human CD4+ T cells. In words: proliferation of activated human CD4+ T cells (anti-CD3+anti-CD28 beads, CFSE flow cytometry). In kind it is cell-based. The note with it: activated in vitro for 72 hours with anti-CD3+anti-CD28 beads. As to the method:
FIG. 13. […] Human CD4+ T cells were activated in vitro for 72 hours using anti-CD3+anti-CD28 beads, and cell division was monitored by flow cytometry using CFSE, and the number of daughter cells generated was determined.

Another assay has as its system murine Th1 cells. In words: IFNg production by murine Th1 cells after in vitro activation. In kind it is cell-based. The note with it: low doses; anti-CD3+anti-CD28 beads for 6 hours. As to the method:
(§1) FIGS. 14A-14B. Dose-dependent effect of lometrexol on IFNg production by murine Th1 cells (FIG. 14A) and IL-4 production by murine Th2 cells (FIG. 14B) following in vitro activation with anti-CD3+anti-CD28 beads for 6 hours.

The subject of another assay is murine Th2 cells. Briefly: IL-4 production by murine Th2 cells after in vitro activation. The note with it: low doses; anti-CD3+anti-CD28 beads for 6 hours. In kind it is cell-based. Here is the method: as §1
The target of assay [2] is dihydrofolate reductase (DHFR) (Homo sapiens, UniProt P00374). Particulars: in vitro studies; cited from earlier work.
The target of assay [3] is thymidylate synthase (TS) (Homo sapiens, UniProt P04818). The note with it: in vitro studies; cited from earlier work.

“Also recorded” adds a separate entry of the source.

thymidylate synthase (TS), sequence (P04818 whole entry, species assumed): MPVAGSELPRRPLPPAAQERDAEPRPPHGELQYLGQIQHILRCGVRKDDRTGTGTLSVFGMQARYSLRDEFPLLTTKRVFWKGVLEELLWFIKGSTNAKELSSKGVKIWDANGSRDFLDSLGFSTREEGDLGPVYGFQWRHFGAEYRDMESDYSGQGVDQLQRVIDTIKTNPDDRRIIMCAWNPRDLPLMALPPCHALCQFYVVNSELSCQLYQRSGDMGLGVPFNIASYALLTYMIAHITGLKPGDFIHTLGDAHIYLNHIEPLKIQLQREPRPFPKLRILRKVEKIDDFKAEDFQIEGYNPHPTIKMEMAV
dihydrofolate reductase (DHFR), sequence (P00374 whole entry, species assumed): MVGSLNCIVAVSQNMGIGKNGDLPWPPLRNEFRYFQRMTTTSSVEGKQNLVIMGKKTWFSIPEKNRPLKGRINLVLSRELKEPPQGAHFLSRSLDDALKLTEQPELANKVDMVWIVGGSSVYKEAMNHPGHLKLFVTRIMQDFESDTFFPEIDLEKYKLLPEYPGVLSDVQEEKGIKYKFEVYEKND

`Nc1nc2c(c(=O)[nH]1)C[C@@H](CCc1ccc(C(=O)N[C@@H](CCC(=O)O)C(=O)O)cc1)CN2` [lometrexol]: the “CD27+CD38+ GCB cell plasmablast differentiation / plasmablast frequency” value in assay [1] (day 7 of culture, lometrexol added after 48 hours, three tonsil donors) is on record as “abrogated plasmablast differentiation in a dose-dependent manner; also recorded: Plasmablast frequency diminishment”. In assay [1] (day 7 tonsillar organoids), the “B or T cell survival (viability)” value was “without affecting” and the TFH frequency entry is “without affecting”. Further, in assay [1] (tonsil organoid system), the “T cell-B cell collaboration (humoral immune response)” value was “blocks”. In the assay with human CD4+ T cells, the “proliferation of activated CD4+ T cells (cell division, number of daughter cells)” value is recorded as “can inhibit; also recorded: Dose-dependent inhibition”. Besides, the “production of IFNγ from Th1 cells” value in the assay with murine Th1 cells is listed as “at low doses enhances”. For the same compound, the “production of IL-4 from Th2 cells” value with murine Th2 cells is “at low doses enhances”.

For `Nc1nc2[nH]cc(CCc3ccc(C(=O)N[C@@H](CCC(=O)O)C(=O)O)cc3)c2c(=O)[nH]1` [pemetrexed], the “inhibition of dihydrofolate reductase (DHFR)” value in assay [2] is given as “inhibits”. In assay [3], the “inhibition of thymidylate synthase (TS)” value is “inhibits”.

The record behind these values is patent publication US20250297244A1, “COMPOSITIONS AND METHODS FOR THE DIAGNOSIS AND TREATMENT OF SEVERE COVID 19 AND OTHER IN[…]” (THE CHILDREN'S HOSPITAL OF PHILADELPHIA, priority 2022, published 2025).
